Data set [1] deals with fibrin-induced microglia activation. In words: Image-based assay of fibrin-induced microglia activation (HTS and dose response). The following applies: for inhibition at 10 µM: Rattus norvegicus, Microglia, read-out: Fibrin % inhibition. In kind it is cell-based, rat.
For data set [2], the system named is LPS-induced microglia activation. In words: Image-based assay of LPS-induced microglia activation (HTS and dose response). The format is cell-based, rat. The following applies: for inhibition at 10 µM: Rattus norvegicus, Microglia, 48 h, read-out: LPS % inhibition.
The subject of data set [3] is fibrin- and LPS-induced microglia activation. The data set can be described thus: cells. The format is cell-based, rat.
In data set [4] the test system is primary rat microglia.
For data set [5], the system named is primary rat microglia. This is another data set of the same source.
Where [6] appears, read: primary microglia HTS, fibrin stimulation, activation = cell size >800 μm2.
[7] abbreviates: primary microglia HTS, LPS stimulation, activation = cell size >800 μm2.
[8] abbreviates: quadrant by fibrin and LPS inhibition in HTS of 1907 compounds.
Where [9] appears, read: primary microglia HTS, fibrin stimulation, increased cell size (>800 μm^2) as marker of activation.
Where [10] appears, read: primary microglia HTS, LPS stimulation, increased cell size (>800 μm^2) as marker of activation.

One may read the inhibition as the drop in the measured response relative to a control, in per cent.

Read-outs that look alike come from different tables or passages of the source.
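Wherever Fibrin % cell toxicity is given: share of dead cells sized under 150 µm2 at 10 µM in fibrin-stimulated microglia HTS.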

`CCC1=C(C)CN(C(=O)NCCc2ccc(S(=O)(=O)NC(=O)N[C@H]3CC[C@H](C)CC3)cc2)C1=O` [Glimepiride]: the inhibition at 10 µM in data set [1] (setting [6]) stood at 0%; in data set [2] (setting [7]), 21%. Further, the “Quadrant (FIG. 5b)” value in data set [3] (setting [8]) is “Q4”. Moreover, the “Fibrin % cell toxicity” value with primary rat microglia [4] (rat) is given as 1%. Moreover, in the data set with primary rat microglia [5] (rat), the “LPS % cell toxicity” value came to 0%.
For the compound `N[C@@H](CCC(=O)N[C@@H](CS)C(=O)NCC(=O)O)C(=O)O` [Glutathione], the inhibition at 10 µM in data set [1] is -5%; in data set [2] it was 13%. In addition, in data set [3], the “Quadrant (FIG. 5b)” value was “Q4”. In the data set on primary rat microglia [4] (rat), the “Fibrin % cell toxicity” value turned out to be 1%. Besides, the “LPS % cell toxicity” value in the data set with primary rat microglia [5] (rat) was found to be 0%.
For the compound `COC1=CC(=O)C[C@@H](C)[C@]12Oc1c(Cl)c(OC)cc(OC)c1C2=O` [Griseofulvin], the values for the inhibition at 10 µM in data set [1] (setting [6]) and in data set [2] (setting [7]) were 9% and 13%, respectively. For the same compound, the “Quadrant (FIG. 5b)” value in data set [3] (setting [8]) was “Q4”. Further, the “Fibrin % cell toxicity” value in the data set with primary rat microglia [4] (rat) was 1%. Besides, the “LPS % cell toxicity” value in the data set on primary rat microglia [5] (rat) was 0%.
For the compound `O=C(CCCN1CCC(O)(c2ccc(Cl)cc2)CC1)c1ccc(F)cc1` [Haloperidol], the inhibition at 10 µM was -22% in data set [1] and 12% in data set [2]. The “Quadrant (FIG. 5b)” value in data set [3] is listed as “Q4”. Further, the “Fibrin % cell toxicity” value in the data set with primary rat microglia [4] (rat) was found to be 1%. Besides, in the data set with primary rat microglia [5] (rat), the “LPS % cell toxicity” value is on record as 1%.
In the case of `FC(F)(F)C(Cl)Br` (stereo not shown) [Halothane], the inhibition at 10 µM in data set [1] (setting [6]) and in data set [2] (setting [7]) was 17% each time. Further, in data set [3] (setting [8]), the “Quadrant (FIG. 5b)” value is on record as “Q4”. In addition, the “Fibrin % cell toxicity” value in the data set with primary rat microglia [4] (rat) was 1%. The “LPS % cell toxicity” value in the data set on primary rat microglia [5] (rat) amounted to 0%.
For the compound `CC1CC(OC(=O)c2ccccc2O)CC(C)(C)C1` (stereo not shown) [Homosalate], the inhibition at 10 µM in data set [1] (setting [6]) is -3%; in data set [2] (setting [7]) it was 18%. For the same compound, the “Quadrant (FIG. 5b)” value in data set [3] (setting [8]) is reported as “Q4”. In addition, the “Fibrin % cell toxicity” value with primary rat microglia [4] (rat) is recorded as 1%. The “LPS % cell toxicity” value in the data set with primary rat microglia [5] (rat) turned out to be 1%.
In the case of `NNc1nncc2ccccc12` [Hydralazine], the inhibition at 10 µM in data set [1] was -13%; in data set [2] it was 22%. Moreover, the “Quadrant (FIG. 5b)” value in data set [3] is “Q4”. The “Fibrin % cell toxicity” value with primary rat microglia [4] (rat) worked out at 1%. Also, the “LPS % cell toxicity” value with primary rat microglia [5] (rat) came to 0%.
As to `Oc1ccc(O)cc1` [Hydroquinone], the results for the inhibition at 10 µM in data set [1] and in data set [2] were 14% and 12%, respectively. Moreover, in data set [3], the “Quadrant (FIG. 5b)” value was “Q4”. Also, in the data set with primary rat microglia [4] (rat), the “Fibrin % cell toxicity” value stood at 1%. In the data set on primary rat microglia [5] (rat), the “LPS % cell toxicity” value is 0%.
With `CC(=O)[C@]1(O)Cc2c(O)c3c(c(O)c2[C@@H](O[C@H]2C[C@H](N)[C@H](O)[C@H](C)O2)C1)C(=O)c1ccccc1C3=O.Cl` [Idarubicin, Idarubicin Hydrochloride], in data set [1] (setting [9]), the Fibrin % inhibition was found to be 106%. Besides, the LPS % inhibition in data set [2] (setting [10]) is 106%. Moreover, in data set [3] (setting [8]), the “Quadrant (FIG. 5b)” value is “Q2”. Further, the “Fibrin % cell toxicity” value with primary rat microglia [4] came to 90%. For the same compound, in the data set on primary rat microglia [5], the “LPS % cell toxicity” value turned out to be 40%.
In the case of `COC1=C(OC)C(=O)C(CCCCCCCCCCO)=C(C)C1=O` [Idebenone], the results for the inhibition at 10 µM in data set [1] (setting [6]) and in data set [2] (setting [7]) were -24% and 2%, respectively. Moreover, the “Quadrant (FIG. 5b)” value in data set [3] (setting [8]) is “Q4”. Further, the “Fibrin % cell toxicity” value with primary rat microglia [4] (rat) came out at 1%. Moreover, in the data set on primary rat microglia [5] (rat), the “LPS % cell toxicity” value stood at 0%.
Turning to `CC(C)(C)NC(=O)[C@@H]1CN(Cc2cccnc2)CCN1C[C@@H](O)C[C@@H](Cc1ccccc1)C(=O)N[C@H]1c2ccccc2C[C@H]1O` [Indinavir], the values for the inhibition at 10 µM in data set [1] (setting [6]) and in data set [2] (setting [7]) were -22% and 5%, respectively. Further, the “Quadrant (FIG. 5b)” value in data set [3] was “Q4”. Also, the “Fibrin % cell toxicity” value with primary rat microglia [4] (rat) is given as 1%. The “LPS % cell toxicity” value in the data set on primary rat microglia [5] (rat) was found to be 0%.
In the case of `COc1ccc2c(c1)c(CC(=O)O)c(C)n2C(=O)c1ccc(Cl)cc1` [Indomethacin], the figures for the inhibition at 10 µM in data set [1] (setting [6]) and in data set [2] (setting [7]) were -56% and 13%, respectively. Further, the “Quadrant (FIG. 5b)” value in data set [3] (setting [8]) was “Q4”. In the data set with primary rat microglia [4] (rat), the “Fibrin % cell toxicity” value turned out to be 0%. The “LPS % cell toxicity” value with primary rat microglia [5] (rat) is 0%.
For `O=C(NCC(O)CO)c1c(I)c(C(=O)NCC(O)CO)c(I)c(N(CCO)C(=O)CO)c1I` (stereo not shown) [Ioversol], the inhibition at 10 µM in data set [1] is -1%; in data set [2], 18%. Also, the “Quadrant (FIG. 5b)” value in data set [3] is reported as “Q4”. The “Fibrin % cell toxicity” value with primary rat microglia [4] (rat) was 1%. For the same compound, the “LPS % cell toxicity” value in the data set with primary rat microglia [5] (rat) is listed as 1%.
On to `CC(C)NNC(=O)c1ccncc1` [Iproniazid], for which the inhibition at 10 µM in data set [1] (setting [6]) is -44%; in data set [2] (setting [7]), 10%. Also, the “Quadrant (FIG. 5b)” value in data set [3] (setting [8]) is “Q4”. In addition, the “Fibrin % cell toxicity” value in the data set on primary rat microglia [4] (rat) is on record as 1%. Besides, the “LPS % cell toxicity” value in the data set on primary rat microglia [5] (rat) was determined as 0%.
The like results for `CC(C)NCC(O)c1ccc(O)c(O)c1` (stereo not shown) [Isoprenaline] were, in that order, 29%, 37%, “Q4”, 0% and 0%.
Turning to `CC1=C(/C=C/C(C)=C/C=C/C(C)=C\C(=O)O)C(C)(C)CCC1` [Isotretinoin], the figures for the inhibition at 10 µM in data set [1] (setting [9]) and in data set [2] (setting [10]) were 112% and 55%, respectively. Further, in data set [3] (setting [8]), the “Quadrant (FIG. 5b)” value is reported as “Q2”. In the data set on primary rat microglia [4] (rat), the “Fibrin % cell toxicity” value is 13%. In the data set on primary rat microglia [5] (rat), the “LPS % cell toxicity” value came to 1%.
Regarding `NC[C@H]1O[C@H](O[C@H]2[C@H](O)[C@@H](O[C@H]3O[C@H](CO)[C@@H](O)[C@H](N)[C@H]3O)[C@H](N)C[C@@H]2N)[C@H](O)[C@@H](O)[C@@H]1O.O=S(=O)(O)O` [Kanamycin Sulfate, Kanamycin A Sulfate], the Fibrin % inhibition in data set [1] is on record as −13%. In addition, the LPS % inhibition in data set [2] is recorded as 20%. Also, the “Quadrant (FIG. 5b)” value in data set [3] was “Q4”. In addition, the “Fibrin % cell toxicity” value with primary rat microglia [4] turned out to be 0%. Besides, the “LPS % cell toxicity” value in the data set on primary rat microglia [5] was 1%.
On to `CC(=O)N1CCN(c2ccc(OCC3COC(Cn4ccnc4)(c4ccc(Cl)cc4Cl)O3)cc2)CC1` (stereo not shown) [Ketoconazole], for which the inhibition at 10 µM in data set [1] was -57%; in data set [2] it was -1%. For the same compound, the “Quadrant (FIG. 5b)” value in data set [3] is “Q4”. The “Fibrin % cell toxicity” value in the data set with primary rat microglia [4] (rat) is given as 0%. Moreover, in the data set with primary rat microglia [5] (rat), the “LPS % cell toxicity” value turned out to be 0%.
On to `N[C@@H](CC(=O)O)C(=O)O` [L-aspartic Acid, Aspartic Acid (I)], for which, in data set [1] (setting [6]), the Fibrin % inhibition was 5%. Also, in data set [2] (setting [7]), the LPS % inhibition is reported as 13%. Besides, in data set [3] (setting [8]), the “Quadrant (FIG. 5b)” value was “Q4”. Moreover, in the data set on primary rat microglia [4], the “Fibrin % cell toxicity” value worked out at 1%. In addition, the “LPS % cell toxicity” value in the data set with primary rat microglia [5] was 1%.
For `NC(=O)CC[C@H](N)C(=O)O` [L-glutamine, Glutamine (I)], the Fibrin % inhibition in data set [1] (setting [6]) stood at 4%. Moreover, the LPS % inhibition in data set [2] (setting [7]) came out at 14%. The “Quadrant (FIG. 5b)” value in data set [3] (setting [8]) is given as “Q4”. Further, in the data set with primary rat microglia [4], the “Fibrin % cell toxicity” value was found to be 0%. Further, the “LPS % cell toxicity” value with primary rat microglia [5] was 0%.
With `CC(CCc1ccccc1)NCC(O)c1ccc(O)c(C(N)=O)c1` (stereo not shown) [Labetalol], the inhibition at 10 µM in data set [1] was found to be 32%; in data set [2], 30%. Further, the “Quadrant (FIG. 5b)” value in data set [3] is on record as “Q4”. Besides, the “Fibrin % cell toxicity” value in the data set on primary rat microglia [4] (rat) worked out at 1%. In the data set with primary rat microglia [5] (rat), the “LPS % cell toxicity” value is 1%.
Turning to `CC(O)C(=O)O` (stereo not shown) [Lactic Acid], the inhibition at 10 µM in data set [1] is 0%; in data set [2], 14%. Further, in data set [3], the “Quadrant (FIG. 5b)” value was “Q4”. The “Fibrin % cell toxicity” value in the data set on primary rat microglia [4] (rat) is reported as 1%. In the data set on primary rat microglia [5] (rat), the “LPS % cell toxicity” value was determined as 1%.
Take `N#Cc1ccc(C(c2ccc(C#N)cc2)n2cncn2)cc1` [Letrozole]: the inhibition at 10 µM in data set [1] (setting [6]) is 15%; in data set [2] (setting [7]), 16%. In data set [3] (setting [8]), the “Quadrant (FIG. 5b)” value is reported as “Q4”. For the same compound, in the data set on primary rat microglia [4] (rat), the “Fibrin % cell toxicity” value is reported as 1%. Besides, the “LPS % cell toxicity” value in the data set with primary rat microglia [5] (rat) worked out at 0%.

The values are drawn from patent US20210330611A1, “THERAPY FOR NEUROLOGICAL DISEASES/DISORDERS” (priority 2020, published 2021).
